Measurements as given in ChEMBL document CHEMBL5344441, “Discovery and Preclinical Pharmacology of NX-2127, an Orally Bioavailable Degrader of Bruton's Tyrosine Kinase with Immunomodulatory Activity for the Treatment of Patients with B Cell Malignancies” (J Med Chem, 2024).
Converted amounts (≈) assume the structure as drawn. The source made the active and inactive calls. The calls are words filed in the database; no cut-off is given here.

Key:
[1] = target: Protein cereblon/Tyrosine-protein kinase BTK (Homo sapiens, UniProt Q06187+Q96SW2); assay: PROTAC activity at CRBN/BTK in human TMD8 cells assessed as maximal degradation of BTK protein incubated for 4 hrs by HTRF assay relative to control; type: cell-based
[2] = target: T1, Protein cereblon/Tyrosine-protein kinase BTK (Mus musculus) (UniProt P35991+Q8C7D2); assay: In vivo protac activity at CRBN/BTK in CD-1 mouse assessed as remaining BTK protein in blood at 30 mg/kg,po administration measured after 24 hrs by flow cytomtery relative to control; type: functional, organism-based
T1 sequence (P35991 whole entry, looked up): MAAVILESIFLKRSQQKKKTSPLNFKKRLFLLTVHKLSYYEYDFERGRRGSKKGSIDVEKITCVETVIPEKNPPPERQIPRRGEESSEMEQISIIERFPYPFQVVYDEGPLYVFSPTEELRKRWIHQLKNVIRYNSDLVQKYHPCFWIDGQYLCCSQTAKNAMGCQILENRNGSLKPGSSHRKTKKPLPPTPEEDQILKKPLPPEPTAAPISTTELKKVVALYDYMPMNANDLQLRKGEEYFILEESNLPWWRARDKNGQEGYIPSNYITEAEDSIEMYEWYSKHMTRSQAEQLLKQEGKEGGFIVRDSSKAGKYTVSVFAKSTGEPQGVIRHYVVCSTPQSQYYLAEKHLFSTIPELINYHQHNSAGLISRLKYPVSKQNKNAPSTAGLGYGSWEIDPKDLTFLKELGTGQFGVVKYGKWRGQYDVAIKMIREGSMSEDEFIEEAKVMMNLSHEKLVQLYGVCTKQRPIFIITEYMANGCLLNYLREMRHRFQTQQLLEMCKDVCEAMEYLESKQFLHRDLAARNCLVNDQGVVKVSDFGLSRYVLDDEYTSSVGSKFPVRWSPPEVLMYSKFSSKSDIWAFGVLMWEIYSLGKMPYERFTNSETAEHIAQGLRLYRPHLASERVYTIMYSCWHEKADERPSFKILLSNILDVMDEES
T1 sequence (Q8C7D2 whole entry, looked up): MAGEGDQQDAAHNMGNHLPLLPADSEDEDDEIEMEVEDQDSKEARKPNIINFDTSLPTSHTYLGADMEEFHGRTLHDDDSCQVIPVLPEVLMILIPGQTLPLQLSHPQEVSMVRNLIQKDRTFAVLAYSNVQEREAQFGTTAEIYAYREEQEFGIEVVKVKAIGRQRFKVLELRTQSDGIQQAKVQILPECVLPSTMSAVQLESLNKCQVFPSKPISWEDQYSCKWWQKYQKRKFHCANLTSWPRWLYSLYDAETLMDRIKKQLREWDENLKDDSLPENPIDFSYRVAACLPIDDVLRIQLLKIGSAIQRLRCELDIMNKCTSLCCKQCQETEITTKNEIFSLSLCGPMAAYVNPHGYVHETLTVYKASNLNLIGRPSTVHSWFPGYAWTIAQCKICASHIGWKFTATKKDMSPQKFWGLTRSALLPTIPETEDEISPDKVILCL

Cereblon/Ikaros = Cereblon/Ikaros (Homo sapiens, UniProt Q96SW2+Q13422); assay: PROTAC activity at CRBN/IKZF1 in human T cell assessed as degradation of IKZF1 protein incubated for 24 hrs by flow cytometry; type: cell-based
[3] = Aqueous solubility of the compound in PBS at pH 7.4; type: physicochemical
[4] = Plasma protein binding in mouse; type: ADME, cell-free; conditions: read-out: PPB
[5] = Plasma protein binding in dog; type: ADME, cell-free, Canis lupus familiaris; conditions: read-out: PPB (converted)
[6] = Plasma protein binding in cynomolgus monkey; type: ADME, cell-free, Macaca fascicularis; conditions: read-out: PPB (converted)
[7] = Plasma protein binding in human; type: ADME, cell-free; conditions: read-out: PPB (converted)
[8] = AUC in mouse at 10 mg/kg,po; type: ADME, organism-based; design: dose 10 mg/kg, route po; conditions: in vivo
[9] = Observed clearance in rat at 1 mg/kg,iv; type: ADME, organism-based; conditions: in vivo
[10] = Observed clearance in cynomolgus monkey at 1 mg/kg,iv; type: ADME, organism-based, Macaca fascicularis; conditions: in vivo
[11] = AUC in rat at 10 mg/kg,po; type: ADME, organism-based; design: dose 10 mg/kg, route po; conditions: in vivo
[12] = AUC in cynomolgus monkey at 10 mg/kg,po; type: ADME, organism-based, Macaca fascicularis; design: dose 10 mg/kg, route po; conditions: in vivo
[13] = Cmax in rat at 10 mg/kg,po; type: ADME, organism-based; design: dose 10 mg/kg, route po; conditions: in vivo
[14] = Cmax in dog at 10 mg/kg,po; type: ADME, organism-based, Canis lupus familiaris; design: dose 10 mg/kg, route po; conditions: in vivo
[15] = Oral bioavailability in rat at 10 mg/kg; type: ADME, organism-based; conditions: in vivo
[16] = Oral bioavailability in dog at 10 mg/kg; type: ADME, organism-based, Canis lupus familiaris; conditions: in vivo
[17] = target: T1, Protein cereblon/Tyrosine-protein kinase BTK (Mus musculus); assay: In vivo protac activity at CRBN/BTK in mouse assessed as remaining BTK protein at 10 mg/kg,po administration measured after 24 hrs by flow cytomtery relative to control; type: functional, organism-based
[18] = target: Protein cereblon-BTK (Canis lupus familiaris) (UniProt A0A8I3NIQ5+A0A8I3P7Z3); assay: In vivo protac activity at CRBN/BTK in Beagle dog assessed as remaining BTK protein at 10 mg/kg,po administration measured after 24 hrs by flow cytomtery relative to control; type: functional, organism-based
[19] = target: T2, Protein cereblon-BTK (Macaca fascicularis) (UniProt A0A2K5UTB3+A0A7N9IGT8); assay: In vivo protac activity at CRBN/BTK in cynomolgus monkey assessed as remaining BTK protein at 10 mg/kg,po administration measured after 24 hrs by flow cytomtery relative to control; type: functional, organism-based
T2 sequence (A0A2K5UTB3 1-488): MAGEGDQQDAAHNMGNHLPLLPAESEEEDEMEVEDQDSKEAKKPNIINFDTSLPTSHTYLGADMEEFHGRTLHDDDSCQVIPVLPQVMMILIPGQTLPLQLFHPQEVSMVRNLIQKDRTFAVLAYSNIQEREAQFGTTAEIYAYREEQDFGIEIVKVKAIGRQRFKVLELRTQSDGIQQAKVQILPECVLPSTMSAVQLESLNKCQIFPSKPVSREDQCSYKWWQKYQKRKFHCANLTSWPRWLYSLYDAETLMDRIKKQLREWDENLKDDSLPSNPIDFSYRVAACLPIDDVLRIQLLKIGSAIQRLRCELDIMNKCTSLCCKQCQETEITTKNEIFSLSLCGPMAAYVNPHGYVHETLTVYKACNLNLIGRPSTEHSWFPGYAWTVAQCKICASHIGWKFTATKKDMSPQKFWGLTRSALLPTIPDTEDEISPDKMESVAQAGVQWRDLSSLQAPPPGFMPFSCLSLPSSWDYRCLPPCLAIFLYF
T2 sequence (A0A7N9IGT8 entry or part of it partner): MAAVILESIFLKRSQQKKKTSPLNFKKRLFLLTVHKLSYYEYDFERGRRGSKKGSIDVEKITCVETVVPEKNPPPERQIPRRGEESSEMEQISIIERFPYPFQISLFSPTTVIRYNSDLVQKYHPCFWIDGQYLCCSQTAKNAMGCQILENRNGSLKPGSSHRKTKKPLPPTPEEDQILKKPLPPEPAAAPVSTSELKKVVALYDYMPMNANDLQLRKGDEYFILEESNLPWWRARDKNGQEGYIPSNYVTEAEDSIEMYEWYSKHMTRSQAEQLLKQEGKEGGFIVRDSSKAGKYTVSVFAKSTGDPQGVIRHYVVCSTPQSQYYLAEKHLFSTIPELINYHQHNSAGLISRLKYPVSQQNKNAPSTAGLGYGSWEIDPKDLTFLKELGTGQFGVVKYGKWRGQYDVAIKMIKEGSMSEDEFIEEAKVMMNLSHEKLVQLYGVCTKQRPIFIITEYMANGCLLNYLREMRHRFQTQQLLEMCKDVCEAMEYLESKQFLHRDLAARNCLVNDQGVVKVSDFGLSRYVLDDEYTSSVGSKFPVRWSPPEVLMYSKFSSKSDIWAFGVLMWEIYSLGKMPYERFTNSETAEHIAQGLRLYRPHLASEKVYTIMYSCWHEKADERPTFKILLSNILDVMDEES

[20] = Drug uptake in BALB/c mouse plasma at po administration; type: ADME, organism-based; conditions: in vivo
[21] = Cmax in cynomolgus monkey at 10 mg/kg,po administration for 1 day; type: ADME, organism-based, Macaca fascicularis; design: time 1 day, dose 10 mg/kg, route po; conditions: in vivo, 24 h
[22] = AUClast in cynomolgus monkey at 10 mg/kg,po administration for 14 days; type: ADME, organism-based, Macaca fascicularis; design: time 14 day, dose 10 mg/kg, route po; conditions: in vivo
[23] = target: T2, Protein cereblon-BTK (Macaca fascicularis); assay: In vivo protac activity at CRBN/BTK in cynomolgus monkey assessed as degradation of BTK protein at po administration measured after 24 hrs by flow cytomtery; type: functional, organism-based
[24] = target: T3, Protein cereblon/Zinc finger protein Aiolos (Macaca fascicularis) (UniProt A0A2K5UTB3+A0A2K5VJM3); assay: In vivo protac activity at CRBN/IKZF3 in cynomolgus monkey assessed as degradation of IKZF3 protein at po administration measured after 24 hrs by flow cytomtery; type: functional, organism-based
T3 sequence (A0A2K5UTB3 1-488): as the sequence (A0A2K5UTB3 1-488) above
T3 sequence (A0A2K5VJM3 entry or part of it partner): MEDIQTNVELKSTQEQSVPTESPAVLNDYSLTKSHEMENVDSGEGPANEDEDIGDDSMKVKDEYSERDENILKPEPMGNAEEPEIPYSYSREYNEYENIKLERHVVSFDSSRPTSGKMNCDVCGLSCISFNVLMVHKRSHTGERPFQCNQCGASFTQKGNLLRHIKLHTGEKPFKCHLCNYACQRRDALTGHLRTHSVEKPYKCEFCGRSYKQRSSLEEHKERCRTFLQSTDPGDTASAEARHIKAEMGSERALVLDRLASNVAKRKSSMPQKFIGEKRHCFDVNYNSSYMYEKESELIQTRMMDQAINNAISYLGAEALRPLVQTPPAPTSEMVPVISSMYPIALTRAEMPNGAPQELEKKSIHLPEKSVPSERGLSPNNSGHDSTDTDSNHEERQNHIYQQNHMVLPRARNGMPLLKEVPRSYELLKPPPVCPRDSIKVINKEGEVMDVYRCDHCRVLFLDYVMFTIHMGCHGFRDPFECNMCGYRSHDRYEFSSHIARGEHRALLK

[25] = target: T2, Protein cereblon-BTK (Macaca fascicularis); assay: In vivo protac activity at CRBN/BTK in cynomolgus monkey assessed as remaining BTK protein in B cells at 30 mg/kg,po administration for 1 day by flow cytomtery relative to control; type: functional, organism-based
[26] = target: T2, Protein cereblon-BTK (Macaca fascicularis); assay: In vivo protac activity at CRBN/BTK in cynomolgus monkey assessed as remaining BTK protein in B cells at 100 mg/kg,po administration for 1 day by flow cytomtery relative to control; type: functional, organism-based
[27] = target: T2, Protein cereblon-BTK (Macaca fascicularis); assay: In vivo protac activity at CRBN/BTK in cynomolgus monkey assessed as remaining BTK protein in B cells at 10 to 100 mg/kg,po administration for 14 days by flow cytomtery relative to control; type: functional, organism-based; conditions: dose 10-100 mg/kg, time 14.0 day
[28] = target: T3, Protein cereblon/Zinc finger protein Aiolos (Macaca fascicularis); assay: In vivo protac activity at CRBN/IKZF3 in cynomolgus monkey assessed as degradation of IKZF3 protein at 10 mg/kg,po administration for 14 days by flow cytomtery relative to control; type: functional, organism-based; conditions: time 14.0 day
[29] = target: T3, Protein cereblon/Zinc finger protein Aiolos (Macaca fascicularis); assay: In vivo protac activity at CRBN/IKZF3 in cynomolgus monkey assessed as degradation of IKZF3 protein at 30 mg/kg,po administration for 14 days by flow cytomtery relative to control; type: functional, organism-based; conditions: time 14.0 day
[30] = target: T1, Protein cereblon/Tyrosine-protein kinase BTK (Mus musculus); assay: In vivo protac activity at CRBN/BTK in CB17-SCID mouse assessed as degradation of BTK protein in B cells at 10 to 90 mg/kg,po administration for 25 days by flow cytomtery; type: functional, organism-based; conditions: dose 10-90 mg/kg, time 25.0 day
TMD8 [31] = assay: Antitumor activity against human TMD8 cells expressing wild type BTK xenografted in CB17-SCID mouse assessed as tumor growth inhibition at 10 mg/kg,po administration for 25 days; type: functional; conditions: TMD8, 600 h, time 25 day, read-out: TGI
TMD8 [32] = assay: Antitumor activity against human TMD8 cells expressing wild type BTK xenografted in CB17-SCID mouse assessed as tumor growth inhibition at 30 mg/kg,po administration for 25 days; type: functional; conditions: TMD8, 600 h, time 25 day, read-out: TGI
TMD8 [33] = assay: Antitumor activity against human TMD8 cells expressing wild type BTK xenografted in CB17-SCID mouse assessed as tumor growth inhibition at 90 mg/kg,po administration for 25 days; type: functional; conditions: TMD8, 600 h, time 25 day, read-out: TGI
TMD8 [34] = assay: Antitumor activity against human TMD8 cells expressing BTK C481S mutant xenografted in CB17-SCID mouse assessed as tumor growth inhibition at 10 mg/kg,po administration for 25 days; type: functional; conditions: TMD8, 600 h, time 25 day, read-out: TGI
[35] = target: Voltage-gated inwardly rectifying potassium channel KCNH2 (Homo sapiens, UniProt Q12809); assay: Inhibition of human ERG; type: toxicity
Cytochrome P450 2C9 = Cytochrome P450 2C9 (Homo sapiens, UniProt P11712); assay: Inhibition of CYP2C9 (unknown origin); type: ADME
Cytochrome P450 2C9, sequence (P11712 whole entry): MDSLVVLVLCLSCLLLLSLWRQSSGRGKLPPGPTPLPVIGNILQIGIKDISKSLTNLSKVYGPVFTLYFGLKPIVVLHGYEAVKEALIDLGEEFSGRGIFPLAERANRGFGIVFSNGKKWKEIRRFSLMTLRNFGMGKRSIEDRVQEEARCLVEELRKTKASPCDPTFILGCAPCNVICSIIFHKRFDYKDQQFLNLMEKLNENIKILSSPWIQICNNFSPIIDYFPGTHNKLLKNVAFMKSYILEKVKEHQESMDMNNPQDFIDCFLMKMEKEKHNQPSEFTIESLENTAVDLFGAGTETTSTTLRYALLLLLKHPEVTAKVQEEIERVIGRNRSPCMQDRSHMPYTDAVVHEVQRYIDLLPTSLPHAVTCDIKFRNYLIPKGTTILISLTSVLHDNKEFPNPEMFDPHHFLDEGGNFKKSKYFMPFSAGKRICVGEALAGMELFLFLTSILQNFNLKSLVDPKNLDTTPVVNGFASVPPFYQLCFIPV

Cytochrome P450 2C19 = Cytochrome P450 2C19 (Homo sapiens, UniProt P33261); assay: Inhibition of CYP2C19 (unknown origin); type: ADME
Cytochrome P450 2C19, sequence (P33261 whole entry): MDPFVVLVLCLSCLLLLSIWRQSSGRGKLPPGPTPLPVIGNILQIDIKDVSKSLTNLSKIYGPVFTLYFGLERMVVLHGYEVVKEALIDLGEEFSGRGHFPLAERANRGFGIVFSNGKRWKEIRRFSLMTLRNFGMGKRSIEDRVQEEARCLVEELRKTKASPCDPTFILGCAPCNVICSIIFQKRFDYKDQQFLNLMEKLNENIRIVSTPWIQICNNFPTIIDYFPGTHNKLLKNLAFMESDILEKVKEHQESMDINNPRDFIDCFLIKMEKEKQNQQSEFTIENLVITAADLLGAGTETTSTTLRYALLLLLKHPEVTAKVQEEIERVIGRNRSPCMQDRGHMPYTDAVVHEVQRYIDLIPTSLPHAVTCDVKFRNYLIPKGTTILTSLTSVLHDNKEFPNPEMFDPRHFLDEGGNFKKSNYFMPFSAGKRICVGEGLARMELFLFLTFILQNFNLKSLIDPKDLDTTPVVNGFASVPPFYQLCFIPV

Cytochrome P450 1A2 = Cytochrome P450 1A2 (Homo sapiens, UniProt P05177); assay: Inhibition of CYP1A2 (unknown origin); type: ADME
Cytochrome P450 1A2, sequence (P05177 whole entry): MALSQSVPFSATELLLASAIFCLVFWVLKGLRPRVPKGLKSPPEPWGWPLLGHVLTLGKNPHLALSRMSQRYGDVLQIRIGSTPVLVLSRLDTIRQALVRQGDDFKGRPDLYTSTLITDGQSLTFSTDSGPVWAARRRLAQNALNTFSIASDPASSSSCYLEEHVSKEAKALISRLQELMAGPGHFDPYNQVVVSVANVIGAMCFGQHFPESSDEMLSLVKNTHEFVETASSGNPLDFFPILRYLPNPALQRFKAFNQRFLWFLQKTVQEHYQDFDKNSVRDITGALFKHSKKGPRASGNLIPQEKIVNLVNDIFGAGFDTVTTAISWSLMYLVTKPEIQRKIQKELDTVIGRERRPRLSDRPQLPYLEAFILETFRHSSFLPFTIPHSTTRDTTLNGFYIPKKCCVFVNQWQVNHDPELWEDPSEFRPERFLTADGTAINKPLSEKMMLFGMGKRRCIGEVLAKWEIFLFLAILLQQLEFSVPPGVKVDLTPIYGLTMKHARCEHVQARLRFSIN

[36] = target: Tyrosine-protein kinase BTK (Homo sapiens, UniProt Q06187, C481S); assay: Binding affinity to BTK C481S mutant (unknown origin) assessed as dissociation constant by surface plasmon resonance assay
Tyrosine-protein kinase BTK, sequence (Q06187 2-659 C481S limits assumed): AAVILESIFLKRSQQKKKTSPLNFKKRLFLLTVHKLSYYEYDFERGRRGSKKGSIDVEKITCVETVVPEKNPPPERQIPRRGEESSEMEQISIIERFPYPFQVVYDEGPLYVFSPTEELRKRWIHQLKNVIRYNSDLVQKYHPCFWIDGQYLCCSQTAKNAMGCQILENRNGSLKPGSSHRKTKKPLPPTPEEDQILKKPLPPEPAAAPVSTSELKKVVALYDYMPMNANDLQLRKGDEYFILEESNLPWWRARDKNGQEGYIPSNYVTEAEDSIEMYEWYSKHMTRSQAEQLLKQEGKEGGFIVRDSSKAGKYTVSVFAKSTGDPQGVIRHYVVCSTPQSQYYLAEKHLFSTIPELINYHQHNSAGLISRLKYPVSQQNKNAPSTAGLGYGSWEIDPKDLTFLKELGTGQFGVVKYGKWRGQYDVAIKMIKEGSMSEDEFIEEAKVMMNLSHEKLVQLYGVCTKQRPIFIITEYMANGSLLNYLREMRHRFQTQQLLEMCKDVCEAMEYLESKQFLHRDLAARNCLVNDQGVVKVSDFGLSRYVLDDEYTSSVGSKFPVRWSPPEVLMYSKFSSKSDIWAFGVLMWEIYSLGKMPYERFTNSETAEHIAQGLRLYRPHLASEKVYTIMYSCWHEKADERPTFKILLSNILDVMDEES

[37] = target: T1, Protein cereblon/Tyrosine-protein kinase BTK (Mus musculus); assay: In vivo protac activity at CRBN/BTK in BALB/c mouse assessed as residual BTK protein in blood at 0.3 mg/kg,po administration measured after 24 hrs by flow cytomtery relative to control

For NC(=O)c1ncc(N2CCCCC2)nc1Nc1ccc(C2CCN(C[C@H]3CCN(c4ccc5c(c4)C(=O)N(C4CCC(=O)NC4=O)C5=O)C3)CC2)cc1 (stereo partly specified) [ZELEBRUDOMIDE], the Emax [1] was 94%, the Activity [2] was 11% and the DC50 (Cereblon/Ikaros) was 57 nM. For the same compound, the solubility [3] was 0.2 µM (≈ 0.144 µg/mL), the fraction unbound [4] was < 0.015 and the fraction unbound [5] was 0.025. The fraction unbound [6] was 0.046, the fraction unbound [7] was 0.063 and the AUC [8] was 16 µM·h. It also gave a clearance [9] of 19 mL/min/kg, a clearance [10] of 22.2 mL/min/kg and an AUC [11] of 0.89 µM·h. It also gave an AUC [12] of 0.09 µM·h, a Cmax [13] of 67 nM and a Cmax [14] of 31 nM. For the same compound, the bioavailability [15] was 7.1%, the bioavailability [16] was 1% and the Activity [17] was 21%. For the same compound, the Activity [18] was 17%, the Activity [19] was 10% and the Drug uptake [20] was “Dose-Dependent Effect”. The Cmax [21] was 26.9 ng/mL, the AUC(0-t) at 336 h [22] was 366 ng·h/mL and the Activity [23] was “Dose-Dependent Effect”. For the same compound, the Activity [24] was “Dose-Dependent Effect”, the Activity [25] was 9% and the Activity [26] was 8%. The Activity [27] was < 10%, the Activity [28] was 76% and the Activity [29] was 55%. For the same compound, the Activity [30] was “Active”, the inhibition in vivo at 10 mg/kg (TMD8 [31]) was 35% and the inhibition in vivo at 30 mg/kg (TMD8 [32]) was 73%. For the same compound, the inhibition in vivo at 90 mg/kg (TMD8 [33]) was 99%, the inhibition in vivo at 10 mg/kg (TMD8 [34]) was 17% and the IC50 [35] was > 30 µM. The IC50 (Cytochrome P450 2C9) was > 30 µM, the IC50 (Cytochrome P450 2C19) was > 30 µM and the IC50 (Cytochrome P450 1A2) was > 30 µM. The Kd [36] was 18 nM and the residual activity [37] was 81%.
